Read-outs that look alike come from different tables or passages of the source.
Target: His-Tagged hOGA (human O-GlcNAcase) (Homo sapiens (Human), UniProt O60502)
Assay: Human O-GlcNAcase enzyme inhibition assay (Example B01)
Format: biochemical
Details: for IC50: OGA enzyme inhibition assay, activity range classes

Chain of His-Tagged hOGA (human O-GlcNAcase) (O60502 whole entry): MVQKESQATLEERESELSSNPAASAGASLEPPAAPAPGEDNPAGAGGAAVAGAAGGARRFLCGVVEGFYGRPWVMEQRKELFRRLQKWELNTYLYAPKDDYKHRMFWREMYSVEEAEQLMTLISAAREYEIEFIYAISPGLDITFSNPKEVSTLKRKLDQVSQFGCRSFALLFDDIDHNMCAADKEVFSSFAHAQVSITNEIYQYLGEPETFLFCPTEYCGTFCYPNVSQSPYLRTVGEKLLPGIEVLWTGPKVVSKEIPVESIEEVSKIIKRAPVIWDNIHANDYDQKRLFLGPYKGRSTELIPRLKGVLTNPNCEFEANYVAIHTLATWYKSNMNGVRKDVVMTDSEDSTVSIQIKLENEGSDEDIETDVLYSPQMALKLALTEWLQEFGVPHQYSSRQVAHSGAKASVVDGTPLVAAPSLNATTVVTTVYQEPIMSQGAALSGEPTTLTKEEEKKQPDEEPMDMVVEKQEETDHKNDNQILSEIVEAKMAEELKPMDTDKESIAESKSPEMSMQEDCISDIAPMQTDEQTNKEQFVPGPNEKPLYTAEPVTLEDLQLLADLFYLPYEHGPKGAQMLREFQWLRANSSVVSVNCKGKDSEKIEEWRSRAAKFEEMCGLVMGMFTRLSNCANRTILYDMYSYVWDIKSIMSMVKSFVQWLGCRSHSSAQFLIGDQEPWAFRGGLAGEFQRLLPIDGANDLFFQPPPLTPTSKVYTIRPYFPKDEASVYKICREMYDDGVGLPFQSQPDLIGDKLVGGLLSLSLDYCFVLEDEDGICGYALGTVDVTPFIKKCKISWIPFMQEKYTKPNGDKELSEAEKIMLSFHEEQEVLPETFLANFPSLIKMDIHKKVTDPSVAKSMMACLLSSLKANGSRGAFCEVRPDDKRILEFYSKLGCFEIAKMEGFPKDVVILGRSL

Structure (SMILES)	OGA inhibitor activity, in words	IC50 (OGA IC50 (M)) [M]	IC50 (read-out: OGA IC50) [M]
CC(=O)Nc1cnc(N2CCN(C(C)c3ccc4c(c3)OCO4)CC2)nc1 (racemic) [Example 72, N-(2-(4-(1-(benzordlH,31dioxol-5-yl)ethyl)piperazin-1-yl)pyrimidin-5-yl)acetamide]	very potent OGA inhibitors		
C[C@@H](c1ccc2c(c1)OCCO2)N1CCN(c2ncc(C(=O)N3CCN(C)CC3)s2)CC1 (single isomer, unassigned) [Example 74]		1e-06 to 1e-05	
CNC(=O)c1csc(N2CCN([C@@H](C)c3ccc4c(c3)OCO4)CC2)n1 (single isomer, unassigned) [Example 56, (/?)-2-(4-(1-(Benzordiri,31dioxol-5-yl)ethyl)piperazin-1-yl)-N-methylthiazole^4-carboxamide or ^S)-2-(4-(1-(benzordiri,31dioxol-5-yl)ethyl)piperazin-1-yl)-N-methylthiazole^4-carboxamide]	very potent OGA inhibitors		< 5e-08
